Results from patent publication US12215101B2, “Pro drugs of PDE10 compounds” (Merck Sharp & Dohme LLC, priority 2021, dated 2025).
≈ marks a conversion by molar mass, not a printed value.

Tests used:
[1] = Aqueous solubility (slurry in pH 7 buffer, UPLC); format: physicochemical; details: pH 7.0 phosphate buffer, amorphous material; for solubility: aqueous buffer, thermodynamic from solid, read-out: Aqu. Solubility
Description: Aqueous solubility of the compounds was measured by suspending, sonicating (30 minutes), and slurrying (2 hours, 1000 rpm) excess solid (typically 5-10 mg) in phosphate buffered saline at pH 7, or equivalent pH 7 buffer. The suspension was then sonicated again for 30 minutes and stirred again at 1000 rpm for at least 6-24 hours. Approximately 400 μL of sample was removed and placed into spin filters. Each sample was spun at 14K rpm for 10 minutes using a 0.45 μm PVDF spin filter. A portion of the filtrate was removed and diluted with 1:1 ACN:H2O. The resultant samples were analyzed using UPLC analysis. Retains of the solids were checked by XRPD to determine if the material was crystalline or amorphous. Solubility of Compound A was measured at 140 μg/mL at pH 7.4 in PBS buffer solution.

[2] = Plasma stability in frozen human plasma; format: in vitro ADME; details: 37° C., 10% CO2, read-out: T1/2 Human Plasma (converted)
Description: (§1) Plasma stability of the compounds 1-19 (1 μM) was evaluated in frozen monkey and human plasma at 37° C. in a 10% CO2 environment. The stability of the analyte was assessed by determining the percentage of drug loss over the course of 0, 0.25, 0.5, 1, and 3 hr. In addition, the appearance of Compound A was determined for the same time course. Percent of drug loss as based on ratio with internal standard. Analyte concentrations were measured by LC/MS/MS. Linear regression was performed with log transformed percent of average TO values and linear time values. The elimination rate constant (ke) was calculated from the slope of this regression line and the half-life (T1/2) calculated based on the elimination rate constant.

[3] = Plasma stability in frozen monkey plasma; format: in vitro ADME; details: 37° C., 10% CO2, read-out: T1/2 Monkey Plasma (converted)
Description: as §1

Compound	solubility [1]	half-life at 1 μM [2]	half-life at 1 μM [3]	Aqu. Solubility [1]
CCC(CC)C(=O)OCOC(=O)N(Cc1nnc(C)s1)c1cc(OC[C@H]2C[C@@H]2c2ccc(C)cn2)nc(C)n1 [Compound 19, ({(2-Methyl-6-{[(1S,2S)-2-(5-methylpyridin-2-yl)cyclopropyl]methoxy}pyrimidin-4-yl)[(5-methyl-1,3,4-thiadiazol-2-yl)methyl]carbamoyl}oxy)methyl 2-ethylbutanoate]	0.03 µg/mL (≈ 0.0541 µM)	148 min	35.4 min	–
Cc1ccc([C@H]2C[C@@H]2COc2cc(N(Cc3nnc(C)s3)C(=O)OCOC(=O)c3ccccc3)nc(C)n2)nc1 [Compound 5, ((((5-Methyl-1,3,4-thiadiazol-2-yl)methyl)(2-methyl-6-(((1S,2S)-2-(5-methylpyridin-2-yl)cyclopropyl)methoxy)pyrimidin-4-yl)carbamoyl)oxy)methyl benzoate]	0.02 µg/mL (≈ 0.0357 µM)	104 min	78.6 min	–
COc1cccc(C(=O)OCOC(=O)N(Cc2nnc(C)s2)c2cc(OC[C@H]3C[C@@H]3c3ccc(C)cn3)nc(C)n2)c1 [Compound 15, ({(2-Methyl-6-{[(1S,2S)-2-(5-methylpyridin-2-yl)cyclopropyl]methoxy}pyrimidin-4-yl)[(5-methyl-1,3,4-thiadiazol-2-yl)methyl]carbamoyl}oxy)methyl 3-methoxybenzoate]	0.12 µg/mL (≈ 0.203 µM)	198 min	67.2 min	–
Cc1ccc([C@H]2C[C@@H]2COc2cc(N(Cc3nnc(C)s3)C(=O)c3ccccc3)nc(C)n2)nc1 [Compound 3, N-((5-Methyl-1,3,4-thiadiazol-2-yl)methyl)-N-(2-methyl-6-(((1S,2S)-2-(5-methylpyridin-2-yl)cyclopropyl)methoxy)pyrimidin-4-yl)benzamide]	19 µg/mL (≈ 39 µM)	182 min	69 min	–
Cc1ccc([C@H]2C[C@@H]2COc2cc(N(Cc3nnc(C)s3)Sc3ccccc3)nc(C)n2)nc1 [Compound 2, N-((5-Methyl-1,3,4-thiadiazol-2-yl)methyl)-N-(2-methyl-6-(((1S,2S)-2-(5-methylpyridin-2-yl)cyclopropyl)methoxy)pyrimidin-4-yl)-S-phenylthiohydroxylamine]	–	17.4 min	4.8 min	BLQ
COc1ccc(C(=O)OCOC(=O)N(Cc2nnc(C)s2)c2cc(OC[C@H]3C[C@@H]3c3ccc(C)cn3)nc(C)n2)cc1 [Compound 16, ({(2-Methyl-6-{[(1S,2S)-2-(5-methylpyridin-2-yl)cyclopropyl]methoxy}pyrimidin-4-yl)[(5-methyl-1,3,4-thiadiazol-2-yl)methyl]carbamoyl}oxy)methyl 4-methoxybenzoate]	0.16 µg/mL (≈ 0.271 µM)	227 min	100 min	–
Cc1ccc([C@H]2C[C@@H]2COc2cc(N(Cc3nnc(C)s3)C(=O)OCOC(=O)C3CCCCC3)nc(C)n2)nc1 [Compound 18, ({(2-Methyl-6-{[(1S,2S)-2-(5-methylpyridin-2-yl)cyclopropyl]methoxy}pyrimidin-4-yl)[(5-methyl-1,3,4-thiadiazol-2-yl)methyl]carbamoyl}oxy)methyl cyclohexanecarboxylate]	0.07 µg/mL (≈ 0.124 µM)	21 min	16.8 min	–
COc1ccccc1C(=O)OCOC(=O)N(Cc1nnc(C)s1)c1cc(OC[C@H]2C[C@@H]2c2ccc(C)cn2)nc(C)n1 [Compound 14, ({(2-Methyl-6-{[(1S,2S)-2-(5-methylpyridin-2-yl)cyclopropyl]methoxy}pyrimidin-4-yl)[(5-methyl-1,3,4-thiadiazol-2-yl)methyl]carbamoyl}oxy)methyl 2-methoxybenzoate]	0.02 µg/mL (≈ 0.0339 µM)	126 min	54 min	–
CCCCCC(=O)OCOC(=O)N(Cc1nnc(C)s1)c1cc(OC[C@H]2C[C@@H]2c2ccc(C)cn2)nc(C)n1 [Compound 6, ({(2-Methyl-6-{[(1S,2S)-2-(5-methylpyridin-2-yl)cyclopropyl]methoxylpyrimidin-4-yl)[(5-methyl-1,3,4-thiadiazol-2-yl)methyl]carbamoyl}oxy)methyl hexanoate]	0.02 µg/mL (≈ 0.0361 µM)	21 min	14.4 min	–
Cc1ccc([C@H]2C[C@@H]2COc2cc(N(Cc3nnc(C)s3)C(=O)OCOC(=O)c3cccnc3)nc(C)n2)nc1 [Compound 10, ({(2-Methyl-6-{[(1S,2S)-2-(5-methylpyridin-2-ylcyclopropyl]methoxy}pyrimidin-4-yl)|(5-methyl-1,3,4-thiadiadol-2-yl)methyl]carbamoyl}oxy)methyl pyridine-3-carboxylate]	0.05 µg/mL (≈ 0.089 µM)	55.8 min	30.6 min	–
Cc1ccc([C@H]2C[C@@H]2COc2cc(N(Cc3nnc(C)s3)C(=O)OCOC(=O)c3ccc(F)cc3)nc(C)n2)nc1 [Compound 11, ({(2-Methyl-6-{[(1S,2S)-2-(5-methylpyridin-2-yl)cyclopropyl]methoxy}pyrimidin-4-yl)[(5-methyl-1,3,4-thiadiazol-2-yl)methyl]carbamoyl}oxy)methyl 4-fluorobenzoate]	0.07 µg/mL (≈ 0.121 µM)	64.8 min	43.2 min	–
Cc1ccc([C@H]2C[C@@H]2COc2cc(N(Cc3nnc(C)s3)C(=O)OCOC(=O)c3ccccc3F)nc(C)n2)nc1 [Compound 13, ({(2-Methyl-6-{[(1S,2S)-2-(5-methylpyridin-2-yl)cyclopropyl]methoxy}pyrimidin-4-yl)[(5-methyl-1,3,4-thiadiazol-2-yl)methyl]carbamoyl}oxy)methyl 2-fluorobenzoate]	0.08 µg/mL (≈ 0.138 µM)	27 min	16.8 min	–
Cc1ccc([C@H]2C[C@@H]2COc2cc(N(Cc3nnc(C)s3)C(=O)OCOC(=O)c3ccccn3)nc(C)n2)nc1 [Compound 9, ({(2-Methyl-6-{[(1S,2S)-2-(5-methylpyridin-2-yl)cyclopropyl]methoxy}pyrimidin-4-yl)[(5-methyl-1,3.4-thiadiazol-2-yl)methyl]carbamoyl}oxy)methyl pyridine-2-carboxylate]	0.058 µg/mL (≈ 0.103 µM)	7.2 min	6 min	–
CCCCCOC(=O)N(Cc1nnc(C)s1)c1cc(OC[C@H]2C[C@@H]2c2ccc(C)cn2)nc(C)n1 [Compound 4, Pentyl ((5-methyl-1,3,4-thiadiazol-2-yl)methyl)(2-methyl-6-(((1S,2S)-2-(5-methylpyridin-2-yl)cyclopropyl)methoxy)pyrimidin-4-yl)carbamate]	0.008 µg/mL (≈ 0.0161 µM)	412 min	104 min	–
Cc1ccc([C@H]2C[C@@H]2COc2cc(N(Cc3nnc(C)s3)C(=O)OCOC(=O)C(C)C)nc(C)n2)nc1 [Compound 17]	0.16 µg/mL (≈ 0.304 µM)	7.8 min	7.2 min	–
CCC(=O)OCOC(=O)N(Cc1nnc(C)s1)c1cc(OC[C@H]2C[C@@H]2c2ccc(C)cn2)nc(C)n1 [Compound 7, ({(2-Methvl-6-{[(1S,2S)-2-(5-methylpyridin-2-yl)cyclopropyl]methoxy}pyrimidin-4-yl)[(5-methyl-1,3,4-thiadiazol-2-yl)methyl|carbamoyl}oxy)methyl propanoate]	15 µg/mL (≈ 29.3 µM)	4.8 min	5.4 min	–
Cc1ccc([C@H]2C[C@@H]2COc2cc(N(Cc3nnc(C)s3)C(=O)OCc3oc(=O)oc3C)nc(C)n2)nc1 [Compound 1, (5-Methyl-2-oxo-1,3-dioxol-4-yl)methyl ((5-methyl-1,3,4-thiadiazol-2-yl)methyl)(2-methyl-6-(((1S,2S)-2-(5-methylpyridin-2-yl)cyclopropyl)methoxy)pyrimidin-4-yl)carbamate]	2.3 µg/mL (≈ 4.27 µM)	3.6 min	6.6 min	–
Cc1ccc([C@H]2C[C@@H]2COc2cc(N(Cc3nnc(C)s3)C(=O)OCOC(=O)c3ccncc3)nc(C)n2)nc1 [Compound 8, ({(2-Methyl-6-{[(1S,2S)-2-(5-methylpyridin-2-yl)cyclopropyl]methoxy}pyrimidin-4-yl)[(5-methyl-1,3,4-thiadiazol-2-yl)methyl]carbamoyl}oxy)methyl pyridine-4-carboxylate]	0.139 µg/mL (≈ 0.247 µM)	11.4 min	9.6 min	–
